Structures are written as SMILES.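 Results reflect a 48-hour exposure of cells in 96-well plates to compound at five concentrations. Here, GI50 denotes the concentration required for 50% inhibition of growth.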 Calls of active or inactive are those of the source. Cut-off read from the data, not from the text of the source: active = GI50 up to about 1.1 µM and inactive = higher. Some results are limits rather than exact numbers.

Common to all, as to assay: NCI tumour cell line growth inhibition, 48 h
Assay [1] deals with BT-549.
Assay [2] relates to CAKI-1.
Assay [3] has as its system HCC 2998.
The subject of assay [4] is IGROV-1.
Assay [5] relates to MDA-MB-231.
The test system of assay [6] is MDA-N.
Assay [7] relates to MOLT-4.
Assay [8] deals with NCI-H226.
In assay [9] the test system is OVCAR-4.
In assay [10] the test system is PC-3.
The test system of assay [11] is SF-295.
Assay [12] concerns SNB-19.
The subject of assay [13] is SNB-75.
Assay [14] has as its system SW-620.
Assay [15] has as its system TK-10.
Assay [16] concerns HOP-92.
In assay [17] the test system is MDA-MB-435.
For assay [18], the system named is SK-MEL-2.

Turning to `O/N=N/c1ccc(Sc2ccc(/N=N/O)cn2)nc1`, the GI50 in assay [1], in assay [2], in assay [3], in assay [4], in assay [5] and in [6] was > 100 µM (inactive) in each case. Moreover, the GI50 in [7], in assay [8], in assay [9], in [10], in assay [11] and in assay [12] was > 100 µM (inactive) each time. Moreover, the GI50 in assay [13], in [14] and in assay [15] was > 100 µM (inactive) each time.

In the case of `CC(C)(C)OC(=O)[C@H]1CCC(=S)N1Cc1ccccc1`, the GI50 in assay [2], in [3], in assay [16], in assay [4], in assay [5] and in assay [17] was > 100 µM (inactive) in each case. Further, the GI50 in assay [6], in assay [7], in assay [8], in [9], in assay [10] and in assay [11] was > 100 µM (inactive) throughout. The GI50 in [18], in assay [12], in assay [13], in assay [14] and in assay [15] was > 100 µM (inactive) in each case.

Consider `C[C@]12CC[C@H](O)CC1=CC[C@@H]1[C@@H]2CC[C@]2(C)C(=O)/C(=C/c3ccc([N+](=O)[O-])cc3)C[C@@H]12`, for which the GI50 in assay [1] was 23.3 µM (inactive); in [2] it was 24.1 µM (inactive); in assay [3], 20 µM (inactive); in assay [16], 9.16 µM (inactive); in [4], 8.73 µM (inactive); in assay [17] it was 52.5 µM (inactive). For the same compound, the GI50 in [6] was 51.5 µM (inactive); in [7], > 100 µM (inactive); in assay [8], 2.96 µM (inactive); in assay [9], 8 µM (inactive); in [10], 10.4 µM (inactive); in assay [11] it was 6.65 µM (inactive). The GI50 in assay [18] is 17.7 µM (inactive); in assay [12] it was 10.4 µM (inactive); in assay [13], 3.52 µM (inactive); in [14] it was 47.4 µM (inactive).

Turning to `CCNC(=S)NNC(=O)c1csc(NC(=S)NC2CCCCC2)n1`, the GI50 was 15.2 µM (inactive) in assay [1]; 6.71 µM (inactive) in assay [2]; 8.17 µM (inactive) in assay [3]; 6.53 µM (inactive) in assay [5]; 4.1 µM (inactive) in [17]; 2.9 µM (inactive) in assay [6]. Besides, the GI50 in assay [7] is 3.11 µM (inactive); in assay [8], > 100 µM (inactive); in [9], 7.91 µM (inactive); in assay [10], 17.4 µM (inactive); in assay [11], 10.2 µM (inactive); in [18], 12.3 µM (inactive). Also, the GI50 is 37.5 µM (inactive) in [12], 5.27 µM (inactive) in [14] and 19.1 µM (inactive) in assay [15].

Regarding `Clc1ccc(C2Nc3ccccc3C3=NCCN32)cc1` (stereo not given), the GI50 in assay [1] was 24.3 µM (inactive); in [2], 26.5 µM (inactive); in [16], 8.18 µM (inactive); in assay [4], 14.2 µM (inactive); in [5] it was 23.5 µM (inactive); in assay [17], 16.6 µM (inactive). The GI50 in assay [6] was 17.4 µM (inactive); in [7], 36.4 µM (inactive); in assay [9], 30.7 µM (inactive); in assay [10] it was 55.3 µM (inactive); in [11], 14.8 µM (inactive); in assay [18], 19.1 µM (inactive). The results for the GI50 in assay [12], in assay [14] and in assay [15] were 27.9 µM (inactive), 24.5 µM (inactive) and 16.8 µM (inactive), respectively.

As to `O/N=N/c1ccc2ccccc2n1`, the GI50 in assay [1], in assay [2], in assay [4], in [5], in assay [17] and in [6] was > 100 µM (inactive) throughout. Besides, the GI50 in assay [7], in [8], in assay [9], in assay [10], in assay [11] and in assay [18] was > 100 µM (inactive) throughout. Besides, the GI50 in assay [12] was > 100 µM (inactive); in assay [13] it was 75.5 µM (inactive); in assay [14], > 100 µM (inactive); in assay [15] it was > 100 µM (inactive).

As for `Cc1cc(S(=O)(=O)Nc2nc(N)nc(N(C)C)n2)c(SC(C(=O)O)c2ccccc2)cc1Cl` (stereo not given), the GI50 in assay [1], in [2], in [3], in [16], in assay [4] and in assay [6] was > 10 µM (inactive) throughout. The GI50 in assay [7], in assay [8], in assay [9], in assay [10], in assay [11] and in assay [18] was > 10 µM (inactive) throughout. In addition, the GI50 in [12], in [13], in assay [14] and in assay [15] was > 10 µM (inactive) throughout.

On to `BrC(=C(c1ccc(OC2CCCCO2)cc1)c1ccc(OC2CCCCO2)cc1)c1ccccc1` (stereo not given), for which the GI50 in [2], in assay [16], in assay [4], in [5], in assay [17] and in assay [6] was > 100 µM (inactive) each time. Further, the GI50 in assay [7], in assay [8], in assay [9], in assay [10], in assay [11] and in [12] was > 100 µM (inactive) in each case. Moreover, the GI50 in assay [13] was > 100 µM (inactive); in assay [14], > 100 µM (inactive); in assay [15] it was 28.8 µM (inactive).

For the compound `COc1cccc2c1OC(c1cccc3ccccc13)C([N+](=O)[O-])=C2` (stereo not given), the GI50 in [1] is 1.17 µM (inactive); in assay [2], 2.33 µM (inactive); in assay [4], 2.49 µM (inactive); in assay [5] it was 2.12 µM (inactive); in assay [17], 1.51 µM (inactive); in assay [6] it was 1.93 µM (inactive). In addition, the GI50 in [7] is 0.552 µM (active); in assay [8] it was 2 µM (inactive); in assay [9], 3.32 µM (inactive); in assay [10], 0.902 µM (active); in assay [11], 1.88 µM (inactive); in assay [12] it was 1.53 µM (inactive). Besides, the GI50 in assay [13] was 1.32 µM (inactive); in [15], 2.32 µM (inactive).

As for `Cc1ccc(Sc2ccccc2C23OC(C)(C4C(=O)N(c5ccccc5)C(=O)C42)N(C)C3=O)cc1` (stereo not given), the GI50 is > 100 µM (inactive) in [1]; > 100 µM (inactive) in assay [2]; 42.8 µM (inactive) in assay [16]; > 100 µM (inactive) in assay [4]; > 100 µM (inactive) in assay [5]; > 100 µM (inactive) in assay [17]. For the same compound, the GI50 in assay [6] is > 100 µM (inactive); in assay [7], > 100 µM (inactive); in [8] it was > 100 µM (inactive); in [9], 84.5 µM (inactive); in [10], > 100 µM (inactive); in assay [11], > 100 µM (inactive). For the same compound, the GI50 in assay [18], in assay [12], in [13], in assay [14] and in [15] was > 100 µM (inactive) each time.

As to `COc1ccc(OC)c(-c2cn3c(n2)sc2ccccc23)c1`, the GI50 was > 100 µM (inactive) in [1]; > 100 µM (inactive) in assay [2]; 15.8 µM (inactive) in assay [16]; > 100 µM (inactive) in [4]; > 100 µM (inactive) in [5]; > 100 µM (inactive) in assay [17]. Further, the GI50 in assay [6] is > 100 µM (inactive); in [7], > 100 µM (inactive); in [8], > 100 µM (inactive); in assay [9] it was > 100 µM (inactive); in assay [10], 30.6 µM (inactive); in assay [11] it was 95.3 µM (inactive). The GI50 in assay [18], in assay [12], in [13], in assay [14] and in assay [15] was > 100 µM (inactive) throughout.

`COc1cc(C2c3cc4c(c(O)c3C(=O)C3CCC(=O)N32)OCO4)cc(OC)c1OC` (stereo not given): the GI50 is 32.7 µM (inactive) in assay [1]; 47.3 µM (inactive) in assay [2]; 32 µM (inactive) in assay [3]; 34.4 µM (inactive) in assay [16]; 61.9 µM (inactive) in assay [4]; 18.2 µM (inactive) in assay [17]. Moreover, the GI50 in assay [6] is 30.4 µM (inactive); in [7], 37.9 µM (inactive); in assay [8], 38.3 µM (inactive); in assay [9], > 100 µM (inactive); in [10], 38.8 µM (inactive); in assay [11], 36.6 µM (inactive). Also, the GI50 in assay [18] was 79.8 µM (inactive); in assay [12] it was > 100 µM (inactive); in assay [13], 30 µM (inactive); in [14], 45.9 µM (inactive); in assay [15] it was 67.5 µM (inactive).

The record behind these values is ChEMBL document CHEMBL1201862, “PubChem BioAssay data set” (2004).
